Assay results from patent publication US11013745B2, “Triazolopyrimidine, triazolopyridine compounds, and the composition thereof for treating PRC2-mediated diseases” (SHANGHAI INSTITUTE OF MATERIA MEDICA, CHINESE ACADEMY OF …, priority 2017, dated 2021).
Read-outs that look alike come from different tables or passages of the source.

Legend:
[1] = Liver microsomal stability (rat); assay type: in vitro ADME
How it was run: (§1)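 Human, mouse and rat liver microsomes were incubated with NADPH and MgCl2 in 0.1 M Tris pH 7.4, with compound at a 0.2 μM working solution. Remaining compound was quantified by LC/MS over the incubation time. The slope of log remaining versus time gave Clint, which was scaled to predicted Cl, Clhep and % MF.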

[2] = test system: Karpas-422 cells; assay: Growth inhibition of Karpas-422 cells in a long term (11 days), CellTiter-Glo; assay type: cell-based, Human; settings: Homo sapiens, read-out: Karpas-422 (11 days) IC50
[3] = test system: Pfeiffer cells; assay: Pfeiffer cell growth inhibition in a long term (11 days), CellTiter-Glo; assay type: cell-based, Human; settings: Homo sapiens, 264 h, read-out: Experiment on Pfeiffer cell growth inhibition in a long term (11 days IC50)
How it was run: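 Exponentially growing cells seeded at 1*10E5 cells/mL and treated the same day with a concentration range. Media and compound were refreshed at days 4 and 7. Viability was read by CellTiter-Glo after 11 days and GI50 values were derived.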

[4] = Liver microsomal stability (human); assay type: in vitro ADME
How it was run: as §1

[5] = test system: Pfeiffer cells; assay: Growth inhibition of Pfeiffer cells in a long term (14 days), CellTiter-Glo; assay type: cell-based, Human; settings: Homo sapiens, 336 h, read-out: Pfeiffer (14 days) IC50
Method: In a CO2 cell incubator (37° C., 5% CO2), Human diffuse large B-cell lymphoma (DLBCL) cell line, pfeiffer (obtained from ATCC, CRL-2632) were incubated with RPMI 1640 medium (Gibco, purchased from Life Technologies, 22400-089) containing 10% fetal bovine serum (Gibco, purchased from Life Technologies, 10099-141) and 1% antibiotics (penicillin and streptomycin, purchased from Life Technologies, 10378016). […] After seeding the cells, they were placed in a CO2 incubator and allowed to stand for 1 hour. In a 24-well plate containing cells, 2 μL of three-fold gradient of the compounds at 9 different concentrations or DMSO were added to each well, such that the final concentration of the compounds was 0.003-20 μM or 0.3-2000 nM, and the final concentration of DMSO was 0.2%. At day 4, day 7, and day 11 of compound treatment, the fresh medium and compounds were changed, and the cell density of the DMSO control well was diluted to 2*10E5 cells/mL. The cell dilution ratio for other compound wells was the same as that of the DMSO control well. Cell viability was determined by using CellTiter-Glo reagent (purchased from Promega Inc., G7572): cells treated with the compounds for 14 days were transferred to a white 384-well plate (OptiPlate-384, purchased from PerkinElmer, 6007299) at 40 μL/well, an equal volume of CellTiter-Glo reagent was further added. After incubating at room temperature for 10 min, the cold luminescence signal was detected with a multifunctional microplate reader EnVision (PerkinElmer) at a wavelength of 400 to 700 nm. Data were analyzed using GraphPad Prism 5.0 software, and IC50 values were obtained.

[6] = Liver microsomal stability (mouse); assay type: in vitro ADME
[7] = Oral pharmacokinetics in rats; assay type: in vivo; settings: male, SD, plasma, rat, intragastric, 3 mg/kg; for AUC(0-inf): extrapolated to infinity, read-out: AUCINF_obs; for MRT inf: read-out: Average residence time MRTINF_obs; for half-life: read-out: Half life T1/2 (converted); for Cmax: read-out: Peak concentration Cmax
Method: 1. Healthy male SD rats were used as test animals, EED226, […]-07 (3 mg/kg) were administered intragastrically, and the drug concentrations in rat plasma were determined by LC/MS/MS method at different time points after drug administration. The pharmacokinetic behavior of the compounds of the present invention in rats was studied, and the pharmacokinetic properties were evaluated. 2. The test animals were healthy adult male SD rats, with 3 rats in each group, purchased from Shanghai Xipuer-Bikai Laboratory Animal Limited Company. 3. Drug preparation: Compounds EED226, […] were dissolved in DMSO/0.5% HPMC (5/95, v/v) for preparation. The compound SL-ZYE-07 was dissolved in 0.5% HPMC (containing 0.5% Tween 80), vortexed, and sonicated to disperse the solid matter uniformly to obtain a pale white suspension. 4, Operation: EED226, […]-07 were administered to rats by intragastric administration (3 mg/kg), 45 μL of blood was taken through the femoral vein at 0.25, 0.5, 1, 2, 4, 8, 24 hour after administration, and centrifuged in a heparinized centrifuge tube for 5 min, and the plasma samples were separated for analysis. The contents of test compounds in rat plasma after intragastric administration of different compounds were determined by Liquid chromatography-mass spectrometry (LC-MS/MS).

[8] = test system: SU-DHL-4 cells; assay: Growth inhibition of SU-DHL-4 cells in a long term (11 days), CellTiter-Glo; assay type: cell-based, Human; settings: Homo sapiens, read-out: SU-DHL-4 (11 days) IC50
[9] = biological target: PRC2 enzyme (Homo sapiens (Human), UniProt O75530); assay: PRC2 enzyme activity, TR-FRET method; assay type: biochemical
Chain of PRC2 enzyme (O75530 whole entry): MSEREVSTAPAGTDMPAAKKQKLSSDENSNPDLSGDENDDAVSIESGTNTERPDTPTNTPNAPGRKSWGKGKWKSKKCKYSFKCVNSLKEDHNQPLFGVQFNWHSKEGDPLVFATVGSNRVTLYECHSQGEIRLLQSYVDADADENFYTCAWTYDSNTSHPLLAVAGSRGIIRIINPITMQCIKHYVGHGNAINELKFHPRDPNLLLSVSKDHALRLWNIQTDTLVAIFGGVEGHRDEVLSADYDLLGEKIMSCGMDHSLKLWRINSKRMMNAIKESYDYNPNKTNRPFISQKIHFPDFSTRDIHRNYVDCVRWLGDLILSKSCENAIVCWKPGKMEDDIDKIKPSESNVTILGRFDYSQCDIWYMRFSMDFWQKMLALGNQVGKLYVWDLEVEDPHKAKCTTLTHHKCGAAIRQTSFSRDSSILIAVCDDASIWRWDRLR
Chain of PRC2 enzyme (Q15910 whole entry partner): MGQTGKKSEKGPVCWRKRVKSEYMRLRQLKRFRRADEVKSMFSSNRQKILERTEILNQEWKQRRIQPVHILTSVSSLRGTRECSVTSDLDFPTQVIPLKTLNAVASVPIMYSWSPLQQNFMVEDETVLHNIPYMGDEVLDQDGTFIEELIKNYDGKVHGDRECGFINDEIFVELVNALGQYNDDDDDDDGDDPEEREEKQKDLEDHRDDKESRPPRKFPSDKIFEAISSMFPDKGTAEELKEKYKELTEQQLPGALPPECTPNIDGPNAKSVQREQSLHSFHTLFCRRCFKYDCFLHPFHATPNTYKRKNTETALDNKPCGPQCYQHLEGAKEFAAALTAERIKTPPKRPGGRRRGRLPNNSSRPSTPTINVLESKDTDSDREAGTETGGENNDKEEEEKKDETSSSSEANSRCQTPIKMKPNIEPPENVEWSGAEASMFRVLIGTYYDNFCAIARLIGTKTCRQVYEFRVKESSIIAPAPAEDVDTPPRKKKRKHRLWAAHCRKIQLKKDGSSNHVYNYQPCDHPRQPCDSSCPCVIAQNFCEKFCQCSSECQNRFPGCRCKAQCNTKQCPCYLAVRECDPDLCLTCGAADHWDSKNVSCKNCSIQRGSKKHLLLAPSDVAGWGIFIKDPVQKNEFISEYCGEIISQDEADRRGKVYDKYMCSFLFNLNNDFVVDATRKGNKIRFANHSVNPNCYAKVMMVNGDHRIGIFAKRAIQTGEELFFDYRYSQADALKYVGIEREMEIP
Chain of PRC2 enzyme (Q15022 whole entry partner): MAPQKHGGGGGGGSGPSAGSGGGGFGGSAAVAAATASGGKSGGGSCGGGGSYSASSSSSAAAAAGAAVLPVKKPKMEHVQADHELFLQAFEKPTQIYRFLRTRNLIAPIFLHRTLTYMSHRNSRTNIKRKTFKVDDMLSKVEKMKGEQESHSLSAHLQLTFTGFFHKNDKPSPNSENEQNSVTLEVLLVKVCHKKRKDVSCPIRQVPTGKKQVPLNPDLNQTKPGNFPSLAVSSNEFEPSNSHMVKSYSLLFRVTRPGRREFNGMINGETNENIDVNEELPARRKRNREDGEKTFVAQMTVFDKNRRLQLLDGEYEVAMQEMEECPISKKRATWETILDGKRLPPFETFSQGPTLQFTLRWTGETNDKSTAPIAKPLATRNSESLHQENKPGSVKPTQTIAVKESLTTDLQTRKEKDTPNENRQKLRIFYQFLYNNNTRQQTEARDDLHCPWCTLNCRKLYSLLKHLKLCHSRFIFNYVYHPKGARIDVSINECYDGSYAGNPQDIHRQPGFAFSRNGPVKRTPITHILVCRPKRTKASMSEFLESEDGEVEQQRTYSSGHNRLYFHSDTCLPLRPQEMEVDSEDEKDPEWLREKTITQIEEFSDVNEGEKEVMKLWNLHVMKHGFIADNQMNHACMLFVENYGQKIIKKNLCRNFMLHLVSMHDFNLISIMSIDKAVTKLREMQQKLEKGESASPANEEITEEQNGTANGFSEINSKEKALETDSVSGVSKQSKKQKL
How it was run: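 Enzyme preincubated with compound 30 min at room temperature; reaction started with biotin-labeled histone H3 peptide and SAM, run 4 h at room temperature.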

SMILES: Fc1ccc2c(c1CNc1ncc(C3=CCOCC3)c3nncn13)CCO2 [E-Y1]
- Clearance rate in vivo Clint In Vivo Extpl ([1]; rat liver microsomes): 15.9 mL/min
- Intrinsic clearance rate in vivo Clint In Vitro ([1]; rat liver microsomes): 35.2 mL/min/gprot
- Liver clearance rate Clint Hep In Vivo Extpl ([1]; rat liver microsomes): 8.85 mL/min
- Metabolic bioavailability MF % ([1]; rat liver microsomes): 55.8%
- half-life ([1]; rat, liver microsomes, pH 7.4, rat liver microsomes, read-out: Half life T-half): 59.6 min
- IC50 ([2]; 264 h, Karpas-422, 11 days): 19 nM
- IC50 ([3]; 11 days): 8 nM
- Clearance rate in vivo Clint In Vivo Extpl ([4]; human liver microsomes): 1613 mL/min
- Intrinsic clearance rate in vivo Clint In Vitro ([4]; human liver microsomes): 21.1 mL/min/gprot
- Liver clearance rate Clint Hep In Vivo Extpl ([4]; human liver microsomes): 777 mL/min
- half-life ([4]; human, liver microsomes, pH 7.4, human liver microsomes, read-out: Half life T-half): 99.6 min
- bioavailability ([4]; human, liver microsomes, pH 7.4, human liver microsomes, read-out: Metabolic bioavailability MF %): 48.2%
- IC50 ([5]; 14 days): 4 nM
- Clearance rate in vivo Clint In Vivo Extpl ([6]; mouse liver microsomes): 1.98 mL/min
- Intrinsic clearance rate in vivo Clint In Vitro ([6]; mouse liver microsomes): 29.4 mL/min/gprot
- Liver clearance rate Clint Hep In Vivo Extpl ([6]; mouse liver microsomes): 1.19 mL/min
- Metabolic bioavailability MF % ([6]; mouse liver microsomes): 60.2%
- half-life ([6]; mouse, liver microsomes, pH 7.4, mouse liver microsomes, read-out: Half life T-half): 71.5 min
- AUC(0-t) [7]: 2200 ± 237 ng·h/mL
- AUC(0-inf) [7]: 2200 ± 239 ng·h/mL
- MRT inf [7]: 5.46 ± 0.342 h
- half-life [7]: 139 ± 16.1 min
- Cmax [7]: 302 ± 6.4 ng/mL
- IC50 ([8]; 264 h, SU-DHL-4, 11 days): 4 nM

SMILES: CS(=O)(=O)c1ccc(-c2cnc(NCc3ccco3)n3cnnc23)cc1 [EED226, reference compound]
- IC50 ([2]; KARPAS-422, 264 h): 167 nM
- IC50 [9]: 104 nM
- IC50 [3]: 52 nM
- IC50 [5]: 44 nM
- AUC(0-t) [7]: 886 ± 336 ng·h/mL
- AUC(0-inf) [7]: 915 ± 316 ng·h/mL
- MRT inf [7]: 2.55 ± 1.08 h
- half-life [7]: 97.8 ± 24.7 min
- Cmax [7]: 464 ± 429 ng/mL
- IC50 ([8]; SU-DHL-4, 264 h): 95 nM
